Measured values as given in US10660908B2, “Pharmaceutical spray composition comprising a vitamin D analogue and a corticosteroid” (LEO Pharma A/S, priority 2010, dated 2020).
Entries after “also recorded” stand apart in the source; their conditions may differ.

Legend:
[1] = Solubility of calcipotriol and BDP in different propellant mixtures (Example 1); format: physicochemical; settings: for dissolution in propellant: 100% DME as the propellant; for dissolution in propellant mixture: ratio of butane to DME of 4:3, in both the propellant and vehicle phases, 67 mg BDP, 13 mg calcipotriol, 20 g vehicle
Procedure: 2×12 100 ml glass bottles fitted with a valve and actuator were filled with compositions containing 67 mg BDP, 13 mg calcipotriol, 20 g vehicle (comprising liquid paraffin, white soft paraffin and PPG-15-stearyl ether) and varying amounts of DME and butane as shown in Table 1. The composition formed a continuous phase and a dispersed phase presumed to be composed of long-chain alkanes (with ≥50 carbon atoms in the chain) present in the white soft paraffin. The dispersed phase sedimented in the bottom portion of the composition on standing. Thus, the top portion of the composition contained only the continuous phase, while the bottom portion of the composition was composed of a mixture of continuous and dispersed phases.
The sprayed samples were placed on a water bath at 40° C. for 5 hours until the propellant had evaporated. The samples were then cooled for 1 hour at room temperature.
Column: Agilent Zorbas Eclipse Plus C18, 150×4.6 mm, 3.5 μm
Mobile phase: acetonitrile/methanol/0.01M (NH4)2HPO4, pH 6.0, 25:45:30 (v/v/v)
Detection: […]. Calculation at 264 nm for calcipotriol and 240 nm for BDP

[2] = Physical stability by polarized light microscopy (Example 1); format: physicochemical; settings: compositions left to stand for 4 months
Procedure: The physical stability of calcipotriol and BDP in the composition was determined by polarized light microscopy.

[3] = Chemical stability of calcipotriol/BDP in the presence of different inner lacquers (Example 6); format: physicochemical
Procedure: Batches of Composition A prepared as described in Example 2 and placed in aluminium spray containers provided with two different types of inner lacquer, an epoxyphenol based lacquer (HOBA 7940/7407) and a polyimide-polyamide based lacquer (HOBA 8460), respectively, were tested for chemical stability of the active ingredients after standing for 1 month at 40° C. by spraying samples of each batch into a glass and subjecting them to HPLC by the procedure described in Example 3.

[4] = Chemical stability of calcipotriol/BDP in the presence of different gasket materials (Example 8); format: physicochemical
Procedure: In order to test the compatibility of the composition with various gasket materials, samples were prepared with Composition E, see Example 2, filled in aluminum spray containers with a polyamide-polyimide inner lacquer and closed with a valve cup crimped to the container body. To each container, 10 pieces or an equivalent amount of gasket test material were added to the spray container and allowed to be submerged in the composition. The containers were stored at 25° C. or 40° C. and tested after 1 and 3 months at 40° C., and after 3 months at 25° C.
After storage, the composition was sprayed out in a glass bottle, and the propellants were allowed to evaporate for 2 days. The non-volatile part of the composition was analyzed for calcipotriol, betamethasone dipropionate and their related organic impurities.
The amount of calcipotriol was determined by HPLC after liquid extraction followed by a controlled isomerization at 50° C. Methyl testosterone was used as the internal standard. The following conditions were used for the HPLC analysis:
Column: LiChrospher RP-18, 125×4 mm, 5 μm
Mobile phase: Acetonitrile/methanol/0.01M (NH4)2PO4 (20:50:30)
Run time: Approx. 9 minutes
The organic impurities related to calcipotriol were determined by HPLC after liquid extraction, using the following conditions:
Column: YMC ODS-AM, 150×4.6 mm, 3 μm
Run time: 2 times the retention time of calcipotriol
The amount of betamethasone dipropionate was determined by HPLC after liquid extraction, using beclomethasone dipropionate as internal standard and the following HPLC conditions:
Column: Superspher RP-18, 75×4 mm, 4 μm
Mobile phase: Acetonitrile/water (50:55)
The organic impurities related to betamethasone dipropionate were extracted by liquid extraction and analyzed by HPLC using the following conditions:
Mobile phase: Acetonitrile/0.05M (NH4)2PO4 pH 7 (50:55)
Run time: Approx. 20 minutes

[5] = one study, M. Hannuksela et al., Contact Dermatitis 1, 1975; cited from earlier work
[6] = Composition E in contact with Buna and NPR gaskets
[7] = Composition E in contact with Viton and EPDM gaskets

dissolution in propellant [1] | dissolution in propellant mixture [1] | chemical stability: effect of the composition of the inner lacquers ([3]; epoxyphenol vs polyimide-polyamide lacquer) | stability (in words) [4, 6] | stability (in words) [4, 7] | chemical stability (in words) ([3]; polyimide-polyamide based inner lacquer) | SMILES | physical stability (recrystallization) [2] | chemical stability (in words) ([3]; epoxyphenol based inner lacquer of the spray container) | number of irritant reactions [5] [%]
completely dissolved | completely dissolved | much less affected | decomposition | did not have negative impact |  | CCC(=O)OCC(=O)[C@@]1(OC(=O)CC)[C@@H](C)C[C@H]2[C@@H]3CCC4=CC(=O)C=C[C@]4(C)[C@@]3(F)[C@@H](O)C[C@@]21C [betamethasone dipropionate] | neither calcipotriol or BDP recrystallize |  | 
completely dissolved | completely dissolved |  | decomposition | did not have negative impact | acceptable; also recorded: satisfactory | C=C1/C(=C\C=C2/CCC[C@]3(C)[C@@H]([C@H](C)/C=C/[C@@H](O)C4CC4)CC[C@@H]23)C[C@@H](O)C[C@@H]1O [calcipotriol, Calcipotriol] | neither calcipotriol or BDP recrystallize | unacceptably degraded; also recorded: unacceptable chemical degradation | 
 |  |  |  |  |  | CC(O)CO (centres unmarked) [propylene glycol] |  |  | 12.5
